Measured values reported in ChEMBL document CHEMBL4177526, “Discovery and structure activity relationship of the first potent cryptosporidium FIKK kinase inhibitor” (Bioorg Med Chem, 2017).

Legend:
[1] = molecular target: Protein kinase C alpha type (Homo sapiens) (UniProt P17252); experiment: Inhibition of human PKCalpha (1 to 672 residues) assessed as residual activity at 500 nM in presence of 33P-ATP by filter binding assay relative to control
[2] = molecular target: Serine/threonine-protein kinase PAK 5 (Homo sapiens) (UniProt Q9P286); experiment: Inhibition of human PAK5 (2 to 719 residues) assessed as residual activity at 500 nM in presence of 33P-ATP by filter binding assay relative to control
Cryptosporidium parvum = experiment: Selectivity ratio of IC50 for Cryptosporidium parvum CDPK1 to IC50 for recombinant Cryptosporidium parvum FIKK
[3] = molecular target: Protein kinase C zeta type (Homo sapiens) (UniProt Q05513); experiment: Inhibition of human PKCzeta (2 to 592 residues) assessed as residual activity at 500 nM in presence of 33P-ATP by filter binding assay relative to control
[4] = molecular target: Aurora kinase A (Homo sapiens) (UniProt O14965); experiment: Inhibition of human Aurora-A (2 to 403 residues) assessed as residual activity at 500 nM in presence of 33P-ATP by filter binding assay relative to control
[5] = molecular target: Serine/threonine-protein kinase PAK 6 (Homo sapiens) (UniProt Q9NQU5); experiment: Inhibition of human PAK6 (2 to 681 residues) assessed as residual activity at 500 nM in presence of 33P-ATP by scintillation counting method relative to control
[6] = molecular target: Dual specificity protein kinase TTK (Homo sapiens) (UniProt P33981); experiment: Inhibition of human TTK (1 to 857 residues) assessed as residual activity at 500 nM in presence of 33P-ATP by filter binding assay relative to control
[7] = molecular target: Dual specificity tyrosine-phosphorylation-regulated kinase 2 (Homo sapiens) (UniProt Q92630); experiment: Inhibition of human DYRK2 (3 to 528 residues) assessed as residual activity at 500 nM in presence of 33P-ATP by filter binding assay relative to control
[8] = molecular target: Dual specificity mitogen-activated protein kinase kinase 1 (Homo sapiens) (UniProt Q02750); experiment: Inhibition of human MKK1 (2 to 393 residues) assessed as residual activity at 500 nM in presence of 33P-ATP by filter binding assay relative to control
[9] = molecular target: Dual specificity mitogen-activated protein kinase kinase 2 (Homo sapiens) (UniProt P36507); experiment: Inhibition of human MKK2 (2 to 400 residues) assessed as residual activity at 500 nM in presence of 33P-ATP by filter binding assay relative to control
[10] = molecular target: Eukaryotic translation initiation factor 2-alpha kinase 3 (Homo sapiens) (UniProt Q9NZJ5); experiment: Inhibition of human EIF2AK3 (536 to 1116 residues) assessed as residual activity at 500 nM in presence of 33P-ATP by filter binding assay relative to control
[11] = molecular target: Tau-tubulin kinase 1 (Homo sapiens) (UniProt Q5TCY1); experiment: Inhibition of human TTBK1 (1 to 1321 residues) assessed as residual activity at 500 nM in presence of 33P-ATP by filter binding assay relative to control
[12] = molecular target: Mitogen-activated protein kinase kinase kinase 5 (Homo sapiens) (UniProt Q99683); experiment: Inhibition of human ASK1 (670 to 950 residues) assessed as residual activity at 500 nM in presence of 33P-ATP by filter binding assay relative to control
Chain of Mitogen-activated protein kinase kinase kinase 5 (Homo sapiens) (Q99683 whole entry, the tested form may be a part): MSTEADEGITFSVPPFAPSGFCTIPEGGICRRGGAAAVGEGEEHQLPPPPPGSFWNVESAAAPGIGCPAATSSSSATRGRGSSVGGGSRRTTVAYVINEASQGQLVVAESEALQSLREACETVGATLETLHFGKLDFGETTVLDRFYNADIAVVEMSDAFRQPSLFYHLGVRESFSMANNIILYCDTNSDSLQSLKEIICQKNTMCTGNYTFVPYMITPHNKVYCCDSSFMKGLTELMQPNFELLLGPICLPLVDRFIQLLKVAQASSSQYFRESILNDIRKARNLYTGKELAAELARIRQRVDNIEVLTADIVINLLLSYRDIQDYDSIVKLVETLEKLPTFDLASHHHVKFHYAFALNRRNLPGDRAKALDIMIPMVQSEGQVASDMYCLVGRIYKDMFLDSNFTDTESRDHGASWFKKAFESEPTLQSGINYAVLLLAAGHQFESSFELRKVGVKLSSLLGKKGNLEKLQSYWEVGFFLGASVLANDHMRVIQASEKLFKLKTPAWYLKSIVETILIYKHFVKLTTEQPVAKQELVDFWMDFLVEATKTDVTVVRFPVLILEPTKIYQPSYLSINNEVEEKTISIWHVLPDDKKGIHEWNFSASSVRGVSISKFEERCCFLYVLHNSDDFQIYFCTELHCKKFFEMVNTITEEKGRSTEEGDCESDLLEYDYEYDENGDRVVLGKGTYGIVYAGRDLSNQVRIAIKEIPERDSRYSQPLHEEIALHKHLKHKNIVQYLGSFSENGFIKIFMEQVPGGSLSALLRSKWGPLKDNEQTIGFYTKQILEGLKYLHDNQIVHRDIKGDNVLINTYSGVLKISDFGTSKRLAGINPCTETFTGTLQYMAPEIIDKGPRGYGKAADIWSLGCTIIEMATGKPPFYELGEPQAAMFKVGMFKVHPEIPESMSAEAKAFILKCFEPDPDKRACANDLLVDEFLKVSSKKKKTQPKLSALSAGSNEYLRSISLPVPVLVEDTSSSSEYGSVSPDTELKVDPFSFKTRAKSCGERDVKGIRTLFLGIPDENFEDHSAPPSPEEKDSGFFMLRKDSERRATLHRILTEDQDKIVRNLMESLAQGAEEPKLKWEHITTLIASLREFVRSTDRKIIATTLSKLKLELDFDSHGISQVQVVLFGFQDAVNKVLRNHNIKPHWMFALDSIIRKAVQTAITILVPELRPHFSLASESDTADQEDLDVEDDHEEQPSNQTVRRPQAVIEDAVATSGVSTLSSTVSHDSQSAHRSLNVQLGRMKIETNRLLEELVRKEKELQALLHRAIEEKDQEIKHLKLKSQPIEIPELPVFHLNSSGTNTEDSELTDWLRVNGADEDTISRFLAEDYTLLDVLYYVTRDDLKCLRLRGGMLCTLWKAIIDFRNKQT

[13] = molecular target: MAP kinase-activated protein kinase 5 (Homo sapiens) (UniProt Q8IW41); experiment: Inhibition of human PRAK (1 to 471 residues) assessed as residual activity at 500 nM in presence of 33P-ATP by filter binding assay relative to control
[14] = system: Serine/threonine-protein kinase PAK 2 (Homo sapiens), Q13177 [T402E]; experiment: Inhibition of human PAK2 T402E mutant (1 to 524 residues) assessed as residual activity at 500 nM in presence of 33P-ATP by filter binding assay relative to control
[15] = molecular target: Serine/threonine-protein kinase Chk2 (Homo sapiens) (UniProt O96017); experiment: Inhibition of human CHK2 (5 to 543 residues) assessed as residual activity at 500 nM in presence of 33P-ATP by filter binding assay relative to control
[16] = molecular target: Serine/threonine-protein kinase pim-2 (Homo sapiens) (UniProt Q9P1W9); experiment: Inhibition of human PIM2 (2 to 334 residues) assessed as residual activity at 500 nM in presence of 33P-ATP by filter binding assay relative to control
Chain of Serine/threonine-protein kinase pim-2 (Homo sapiens) (Q9P1W9 whole entry, looked up, the tested form may be a part, canonical isoform): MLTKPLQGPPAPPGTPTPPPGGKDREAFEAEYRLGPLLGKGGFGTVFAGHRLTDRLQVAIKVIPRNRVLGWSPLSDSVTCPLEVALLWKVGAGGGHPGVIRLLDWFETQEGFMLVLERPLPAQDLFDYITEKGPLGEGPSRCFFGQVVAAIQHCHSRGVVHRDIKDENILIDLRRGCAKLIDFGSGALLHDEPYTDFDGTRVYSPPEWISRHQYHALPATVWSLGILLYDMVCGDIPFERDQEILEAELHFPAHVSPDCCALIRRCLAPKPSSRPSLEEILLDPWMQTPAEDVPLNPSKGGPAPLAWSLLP

[17] = molecular target: Casein kinase I isoform delta (Homo sapiens) (UniProt P48730); experiment: Inhibition of human CK1delta (1 to 415 residues) assessed as residual activity at 500 nM in presence of 33P-ATP by filter binding assay relative to control
[18] = molecular target: Tyrosine-protein kinase ZAP-70 (Homo sapiens) (UniProt P43403); experiment: Inhibition of human ZAP70 (1 to 619 residues) assessed as residual activity at 500 nM in presence of 33P-ATP by filter binding assay relative to control
[19] = molecular target: Death-associated protein kinase 1 (Homo sapiens) (UniProt P53355); experiment: Inhibition of human DAPK1 (1 to 363 residues) assessed as residual activity at 500 nM in presence of 33P-ATP by filter binding assay relative to control
[20] = molecular target: Serine/threonine-protein kinase SIK3 (Homo sapiens) (UniProt Q9Y2K2); experiment: Inhibition of human SIK3 (2 to 1369 residues) assessed as residual activity at 500 nM in presence of 33P-ATP by filter binding assay relative to control
Chain of Serine/threonine-protein kinase SIK3 (Homo sapiens) (Q9Y2K2 whole entry, looked up, the tested form may be a part): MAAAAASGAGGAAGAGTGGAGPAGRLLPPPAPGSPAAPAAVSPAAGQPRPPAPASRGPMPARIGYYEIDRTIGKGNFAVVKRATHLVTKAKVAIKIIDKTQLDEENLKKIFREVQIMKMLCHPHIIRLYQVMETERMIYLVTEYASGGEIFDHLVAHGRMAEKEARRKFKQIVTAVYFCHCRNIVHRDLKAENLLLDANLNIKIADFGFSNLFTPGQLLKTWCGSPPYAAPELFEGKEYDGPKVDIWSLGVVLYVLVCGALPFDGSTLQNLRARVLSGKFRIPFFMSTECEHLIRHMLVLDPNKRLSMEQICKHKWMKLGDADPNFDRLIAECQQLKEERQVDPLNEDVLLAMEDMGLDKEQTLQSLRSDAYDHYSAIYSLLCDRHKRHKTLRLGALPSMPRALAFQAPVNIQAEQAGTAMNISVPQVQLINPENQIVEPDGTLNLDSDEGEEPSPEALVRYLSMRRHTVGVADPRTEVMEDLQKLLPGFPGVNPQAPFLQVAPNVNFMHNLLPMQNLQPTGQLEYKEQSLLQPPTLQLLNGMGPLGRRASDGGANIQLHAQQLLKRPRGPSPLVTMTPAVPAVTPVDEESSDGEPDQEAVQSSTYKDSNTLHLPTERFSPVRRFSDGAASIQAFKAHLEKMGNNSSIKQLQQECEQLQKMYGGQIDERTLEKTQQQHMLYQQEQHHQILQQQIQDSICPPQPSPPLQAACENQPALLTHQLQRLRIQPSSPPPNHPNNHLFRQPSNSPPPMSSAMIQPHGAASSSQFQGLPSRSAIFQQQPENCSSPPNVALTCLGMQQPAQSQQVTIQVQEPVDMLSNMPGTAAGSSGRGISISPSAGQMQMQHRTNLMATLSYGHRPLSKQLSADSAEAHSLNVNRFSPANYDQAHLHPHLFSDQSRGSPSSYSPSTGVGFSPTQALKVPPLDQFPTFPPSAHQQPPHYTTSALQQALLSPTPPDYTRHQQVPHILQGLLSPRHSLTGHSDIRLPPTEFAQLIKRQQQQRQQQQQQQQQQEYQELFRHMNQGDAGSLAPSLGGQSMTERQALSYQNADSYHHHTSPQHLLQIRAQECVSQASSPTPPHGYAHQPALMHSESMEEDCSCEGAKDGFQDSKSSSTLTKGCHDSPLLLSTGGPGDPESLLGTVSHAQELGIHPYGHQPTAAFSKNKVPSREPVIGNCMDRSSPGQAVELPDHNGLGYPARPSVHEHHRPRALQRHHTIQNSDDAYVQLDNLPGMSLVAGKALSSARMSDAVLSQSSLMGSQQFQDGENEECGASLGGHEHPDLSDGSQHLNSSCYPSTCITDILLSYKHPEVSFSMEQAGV

[21] = molecular target: Serine/threonine-protein kinase TBK1 (Homo sapiens) (UniProt Q9UHD2); experiment: Inhibition of human TBK1 (1 to 729 residues) assessed as residual activity at 500 nM in presence of 33P-ATP by filter binding assay relative to control
Chain of Serine/threonine-protein kinase TBK1 (Homo sapiens) (Q9UHD2 whole entry, the tested form may be a part): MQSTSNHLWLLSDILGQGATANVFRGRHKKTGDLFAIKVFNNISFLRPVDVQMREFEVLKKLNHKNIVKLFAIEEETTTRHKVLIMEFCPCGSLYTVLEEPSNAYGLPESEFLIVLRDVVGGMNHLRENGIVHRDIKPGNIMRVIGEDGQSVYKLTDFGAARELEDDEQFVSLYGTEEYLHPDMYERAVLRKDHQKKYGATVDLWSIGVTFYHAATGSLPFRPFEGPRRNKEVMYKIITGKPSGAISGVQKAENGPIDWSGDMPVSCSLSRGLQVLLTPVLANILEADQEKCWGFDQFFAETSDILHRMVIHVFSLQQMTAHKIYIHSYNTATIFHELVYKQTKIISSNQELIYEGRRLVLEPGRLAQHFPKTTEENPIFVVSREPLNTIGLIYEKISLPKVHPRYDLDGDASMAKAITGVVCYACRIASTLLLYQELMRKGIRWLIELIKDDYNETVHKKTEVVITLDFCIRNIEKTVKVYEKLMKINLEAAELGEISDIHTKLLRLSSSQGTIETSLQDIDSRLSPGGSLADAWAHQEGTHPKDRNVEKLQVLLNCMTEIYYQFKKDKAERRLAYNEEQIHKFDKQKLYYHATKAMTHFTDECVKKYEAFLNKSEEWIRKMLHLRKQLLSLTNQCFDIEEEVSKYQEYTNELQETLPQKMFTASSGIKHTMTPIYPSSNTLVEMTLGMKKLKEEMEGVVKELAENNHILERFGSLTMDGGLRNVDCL

[22] = molecular target: Receptor tyrosine-protein kinase erbB-4 (Homo sapiens) (UniProt Q15303); experiment: Inhibition of human HER4 (706 to 991 residues) assessed as residual activity at 500 nM in presence of 33P-ATP by filter binding assay relative to control
Chain of Receptor tyrosine-protein kinase erbB-4 (Homo sapiens) (Q15303 whole entry, the tested form may be a part): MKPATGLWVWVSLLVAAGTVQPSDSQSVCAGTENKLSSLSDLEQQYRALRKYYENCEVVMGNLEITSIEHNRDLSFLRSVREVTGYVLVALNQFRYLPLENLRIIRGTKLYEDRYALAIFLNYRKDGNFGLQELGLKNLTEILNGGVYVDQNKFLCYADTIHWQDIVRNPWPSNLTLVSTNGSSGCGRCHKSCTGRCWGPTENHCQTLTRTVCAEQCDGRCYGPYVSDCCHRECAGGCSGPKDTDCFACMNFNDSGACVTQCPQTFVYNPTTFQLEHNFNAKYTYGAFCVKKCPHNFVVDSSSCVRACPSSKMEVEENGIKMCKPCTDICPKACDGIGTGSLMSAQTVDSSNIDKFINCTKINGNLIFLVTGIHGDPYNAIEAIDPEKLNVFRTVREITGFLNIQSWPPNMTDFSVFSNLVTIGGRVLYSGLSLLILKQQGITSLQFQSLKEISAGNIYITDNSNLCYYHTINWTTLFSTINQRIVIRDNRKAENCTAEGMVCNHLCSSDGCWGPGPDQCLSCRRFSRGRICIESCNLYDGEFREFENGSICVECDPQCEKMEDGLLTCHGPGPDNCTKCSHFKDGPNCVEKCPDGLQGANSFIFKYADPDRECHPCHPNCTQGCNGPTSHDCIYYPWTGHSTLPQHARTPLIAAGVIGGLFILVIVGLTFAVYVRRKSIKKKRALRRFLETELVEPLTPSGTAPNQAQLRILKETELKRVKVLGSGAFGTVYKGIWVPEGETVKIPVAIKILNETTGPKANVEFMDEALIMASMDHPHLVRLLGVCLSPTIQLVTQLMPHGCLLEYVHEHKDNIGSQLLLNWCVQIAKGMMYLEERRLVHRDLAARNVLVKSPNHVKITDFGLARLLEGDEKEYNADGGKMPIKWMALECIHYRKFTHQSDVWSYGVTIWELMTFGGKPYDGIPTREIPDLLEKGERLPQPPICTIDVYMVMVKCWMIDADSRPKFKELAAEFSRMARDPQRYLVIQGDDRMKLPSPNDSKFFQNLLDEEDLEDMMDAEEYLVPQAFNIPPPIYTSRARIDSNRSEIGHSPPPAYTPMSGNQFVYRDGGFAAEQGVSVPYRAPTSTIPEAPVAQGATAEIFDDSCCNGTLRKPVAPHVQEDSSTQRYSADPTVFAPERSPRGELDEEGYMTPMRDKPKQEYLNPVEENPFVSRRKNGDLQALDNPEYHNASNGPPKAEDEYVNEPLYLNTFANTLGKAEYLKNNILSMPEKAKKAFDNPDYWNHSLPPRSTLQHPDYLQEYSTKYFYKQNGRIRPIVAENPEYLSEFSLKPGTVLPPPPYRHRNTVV

[23] = molecular target: Tyrosine-protein kinase Yes (Homo sapiens) (UniProt P07947); experiment: Inhibition of human YES1 (1 to 543 residues) assessed as residual activity at 500 nM in presence of 33P-ATP by filter binding assay relative to control
TAK1/TAB1 (Homo sapiens) = TAK1/TAB1 (Homo sapiens) (UniProt Q15750+O43318); experiment: Inhibition of human TAK1 (1 to 303 residues)/TAB1 (437 to 504 residues) assessed as residual activity at 500 nM in presence of 33P-ATP by filter binding assay relative to control; assay type: protein-complex assay

Q: With `Cc1cccc(-c2nc(N)sc2-c2ccc3ncccc3n2)c1` as the compound, how does the Activity [1] read?
A: 112%

Q: What about the Activity [2] of the same compound?
A: 107%

Q: And the Ratio IC50 (Cryptosporidium parvum)?
A: 940

Q: What about the Activity [3] of the same compound?
A: 123%

Q: And the Activity [4]?
A: 120%

Q: What about the Activity [5] of the same compound?
A: 119%

Q: What about the Activity [6] of the same compound?
A: 117%

Q: And the Activity [7]?
A: 116%

Q: And the Activity [8]?
A: 115%

Q: And the Activity [9]?
A: 112%

Q: And the Activity [10]?
A: 112%

Q: What about the Activity [11] of the same compound?
A: 112%

Q: What about the Activity [12] of the same compound?
A: 106%

Q: What about the Activity [13] of the same compound?
A: 105%

Q: And the Activity [14]?
A: 103%

Q: What about the Activity [15] of the same compound?
A: 101%

Q: What about the Activity [16] of the same compound?
A: 101%

Q: What about the Activity [17] of the same compound?
A: 97%

Q: And the Activity [18]?
A: 97%

Q: And the Activity [19]?
A: 96%

Q: And the Activity [20]?
A: 86%

Q: And the Activity [21]?
A: 77%

Q: And the Activity [22]?
A: 60%

Q: And the Activity [23]?
A: 53%

Q: What about the Activity (TAK1/TAB1 (Homo sapiens)) of the same compound?
A: 40%
